# Measurements as given in ChEMBL document CHEMBL5120759, “Synthesis, Biological Evaluation, and Molecular Docking Study of 3-Amino and 3-Hydroxy-seco A Derivatives of α-Amyrin and 3-Epilupeol as Inhibitors of COX-2 Activity and NF-kB Activation” (J Nat Prod, 2022).
# Calls of active or inactive are those of the source. The calls are words filed in the database; no cut-off is given here.
# Legend:
# RAW264.7 [1] = assay: Cytotoxicity against mouse RAW264.7 cells assessed as reduction in cell viability at 8.8 to 70 uM incubated for 24 hrs by MTS assay; assay type: toxicity, cell-based; conditions: raw264.7, 24 h, dose 8.8-70 µM
# RAW264.7 [2] = assay: Antiinflammatory activity against LPS-stimulated mouse RAW264.7 cells assessed as inhibition of TNF-alpha production at 70 uM incubated for 2 hrs followed by LPS stimulation for 20 hrs by ELISA relative to control; assay type: functional; conditions: time 22 hrs
# RAW-Blue [3] = assay: Inhibition of NF-kappaB activation in LPS-stimulated mouse RAW-Blue cells at 70 uM preincubated for 2 hrs followed by LPS stimulation and measured after 20 hrs by QUANTI-Blue assay; assay type: cell-based; conditions: time 22.0 hrs
# RAW264.7 [4] = assay: Antiinflammatory activity against LPS-stimulated mouse RAW264.7 cells assessed as inhibition of IL-6 production at 17.5 to 70 uM prestimulated with LPS and 2 hrs later incubated with compound by […] assay; assay type: functional, cell-based; conditions: dose 17.5-70 µM
# [5] = molecular target: T1, Prostaglandin G/H synthase 2 (Homo sapiens) (UniProt P35354); assay: Inhibition of human COX-2 at 17.5 uM using arachidonic acid as substrate by colorimetric analysis
# T1 sequence (whole entry): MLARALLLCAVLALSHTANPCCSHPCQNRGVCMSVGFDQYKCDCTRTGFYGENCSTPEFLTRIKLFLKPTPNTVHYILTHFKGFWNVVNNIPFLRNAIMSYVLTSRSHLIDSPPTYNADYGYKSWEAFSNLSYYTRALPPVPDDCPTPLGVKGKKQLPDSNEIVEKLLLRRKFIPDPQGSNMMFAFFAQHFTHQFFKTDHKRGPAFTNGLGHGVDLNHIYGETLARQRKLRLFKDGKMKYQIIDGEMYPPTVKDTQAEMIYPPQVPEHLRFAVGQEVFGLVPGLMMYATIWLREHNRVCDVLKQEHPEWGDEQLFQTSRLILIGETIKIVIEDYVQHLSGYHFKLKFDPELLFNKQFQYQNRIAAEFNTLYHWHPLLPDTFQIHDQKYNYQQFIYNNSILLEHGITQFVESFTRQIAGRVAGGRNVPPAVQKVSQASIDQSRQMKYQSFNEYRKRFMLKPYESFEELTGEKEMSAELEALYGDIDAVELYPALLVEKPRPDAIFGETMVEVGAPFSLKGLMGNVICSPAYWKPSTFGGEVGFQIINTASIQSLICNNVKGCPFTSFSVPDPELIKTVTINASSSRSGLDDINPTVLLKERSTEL
# RAW264.7 [6] = assay: Antiinflammatory activity against LPS-stimulated mouse RAW264.7 cells assessed as inhibition of NO production incubated for 2 hrs followed by LPS stimulation for 20 hrs by Griess reagent based assay; assay type: functional, cell-based
# RAW264.7 [7] = assay: Antiinflammatory activity against LPS-stimulated mouse RAW264.7 cells assessed as inhibition of TNF-alpha production at 17.5 to 70 uM prestimulated with LPS and 2 hrs later incubated with compound by […] assay; assay type: functional, cell-based; conditions: dose 17.5-70 µM
# Mus musculus = assay: Anti-inflammatory activity against TPA-induced auricular edema CD-1 mouse model assessed as inhibition of ear edema at 1 mg per ear applied immediately after TPA application and measured after 4 hrs relative to control; assay type: functional
# [8] = molecular target: T2, COX-1 (Prostaglandin G/H synthase 1) (Ovis aries, UniProt P05979); assay: Inhibition of ovine COX-1 at 17.5 uM using arachidonic acid as substrate by colorimetric analysis; assay type: single protein; conditions: sheep, ovine COX-1 enzyme, probe arachidonic acid
# T2 sequence (P05979 whole entry): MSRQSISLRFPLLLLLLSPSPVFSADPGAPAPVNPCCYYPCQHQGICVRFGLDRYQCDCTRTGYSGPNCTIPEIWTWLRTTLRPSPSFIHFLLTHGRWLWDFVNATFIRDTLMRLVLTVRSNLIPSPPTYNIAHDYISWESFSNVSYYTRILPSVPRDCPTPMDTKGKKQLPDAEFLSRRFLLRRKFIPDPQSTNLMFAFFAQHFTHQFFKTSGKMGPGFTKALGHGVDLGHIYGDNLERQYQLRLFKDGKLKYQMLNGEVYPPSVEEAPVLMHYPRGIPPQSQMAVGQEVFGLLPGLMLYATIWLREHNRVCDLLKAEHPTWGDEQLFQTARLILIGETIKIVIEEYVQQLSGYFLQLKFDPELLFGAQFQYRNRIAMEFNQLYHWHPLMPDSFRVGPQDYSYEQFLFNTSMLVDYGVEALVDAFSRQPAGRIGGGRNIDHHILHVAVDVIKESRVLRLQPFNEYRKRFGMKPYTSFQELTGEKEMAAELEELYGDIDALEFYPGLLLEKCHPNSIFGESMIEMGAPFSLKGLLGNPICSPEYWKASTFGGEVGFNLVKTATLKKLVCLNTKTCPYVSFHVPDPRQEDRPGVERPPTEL
# RAW264.7 [9] = assay: Antiinflammatory activity against LPS-stimulated mouse RAW264.7 cells assessed as inhibition of IL-6 production incubated for 2 hrs followed by LPS stimulation for 20 hrs by ELISA; assay type: functional, cell-based
# RAW264.7 [10] = assay: Antiinflammatory activity against LPS-stimulated mouse RAW264.7 cells assessed as inhibition of NO production at 8.8 to 70 uM prestimulated with LPS and 2 hrs later incubated with compound by Griess reagent based assay; assay type: functional, cell-based; conditions: dose 8.8-70 µM
# RAW-Blue [11] = assay: Inhibition of NF-kappaB activation in LPS-stimulated mouse RAW-Blue cells at 17.5 uM preincubated for 2 hrs followed by LPS stimulation and measured after 20 hrs by QUANTI-Blue assay; assay type: cell-based; conditions: time 22.0 hrs
# [12] = Cytotoxicity against mouse RAW264.7 cells assessed as cell viability at 35 uM incubated for 24 hrs by MTS assay relative to control; assay type: toxicity, cell-based; conditions: read-out: Activity
# [13] = Cytotoxicity against mouse RAW264.7 cells assessed as cell viability at 70 uM incubated for 24 hrs by MTS assay relative to control; assay type: toxicity, cell-based; conditions: read-out: Activity
# RAW264.7 [14] = assay: Antiinflammatory activity against LPS-stimulated mouse RAW264.7 cells assessed as inhibition of IL-6 production at 70 uM incubated for 2 hrs followed by LPS stimulation for 20 hrs by ELISA relative to control; assay type: functional; conditions: time 22 hrs
# RAW264.7 [15] = assay: Antiinflammatory activity against LPS-stimulated mouse RAW264.7 cells assessed as inhibition of IL-6 production at 84 uM incubated for 2 hrs followed by LPS stimulation for 20 hrs by ELISA relative to control; assay type: functional; conditions: time 22 hrs
# RAW264.7 [16] = assay: Antiinflammatory activity against LPS-stimulated mouse RAW264.7 cells assessed as inhibition of TNF-alpha production at 84 uM incubated for 2 hrs followed by LPS stimulation for 20 hrs by ELISA relative to control; assay type: functional; conditions: time 22 hrs
# RAW-Blue [17] = assay: Inhibition of NF-kappaB activation in LPS-stimulated mouse RAW-Blue cells at 35 uM preincubated for 2 hrs followed by LPS stimulation and measured after 20 hrs by QUANTI-Blue assay; assay type: cell-based; conditions: time 22.0 hrs
# RAW264.7 [18] = assay: Antiinflammatory activity against LPS-stimulated mouse RAW264.7 cells assessed as inhibition of NO production at 4.4 to 35 uM prestimulated with LPS and 2 hrs later incubated with compound by Griess reagent based assay; assay type: functional, cell-based; conditions: dose 4.4-35 µM
# RAW264.7 [19] = assay: Antiinflammatory activity against LPS-stimulated mouse RAW264.7 cells assessed as inhibition of TNF-alpha production at 35 uM incubated for 2 hrs followed by LPS stimulation for 20 hrs by ELISA relative to control; assay type: functional; conditions: time 22 hrs
# RAW264.7 [20] = assay: Antiinflammatory activity against LPS-stimulated mouse RAW264.7 cells assessed as inhibition of TNF-alpha production at 8.8 to 35 uM prestimulated with LPS and 2 hrs later incubated with compound by […] assay; assay type: functional, cell-based; conditions: dose 8.8-35 µM
# RAW264.7 [21] = assay: Antiinflammatory activity against LPS-stimulated mouse RAW264.7 cells assessed as inhibition of IL-6 production at 8.8 to 35 uM prestimulated with LPS and 2 hrs later incubated with compound by […] assay; assay type: functional, cell-based; conditions: dose 8.8-35 µM
Compound,inhibition [5] [%],IC50 (RAW264.7 [6]) [µM],Activity (RAW264.7 [1]),inhibition at 70 µM (RAW264.7 [2]) [%],inhibition (RAW-Blue [3]) [%],Activity (RAW264.7 [4]),Activity (RAW264.7 [7]),inhibition (INH) (Mus musculus) [%],inhibition at 17.5 µM [8] [%],Activity (RAW264.7 [10]),"viability at 24 h, 70 µM [13] [%]",other results
C=C(C)[C@@H]1CC[C@]2(C)CC[C@]3(C)[C@H](CC[C@@H]4[C@@](C)(CCCO)[C@H](C(=C)C)CC[C@]43C)[C@@H]12,26,54.4,Non-Toxic,49.8,63.4,Active,Active,17.3,14.8,Active,–,IC50 (RAW264.7 [9]): 38 µM
C[C@H]1[C@H](C)CC[C@]2(C(=O)O)CC[C@]3(C)C(=CC[C@@H]4[C@@]5(C)CC[C@H](O)C(C)(C)[C@@H]5CC[C@]43C)[C@H]12 [URSOLIC ACID],–,13.8,–,–,–,–,–,34.2,23.6,–,13.9,"inhibition (RAW-Blue [11]): 52.2%; viability at 24 h, 35 µM [12]: 30%"
COc1ccc2c(c1)c(CC(=O)O)c(C)n2C(=O)c1ccc(Cl)cc1 [INDOMETHACIN],–,40.7,–,–,–,–,–,91.4,–,–,–,inhibition at 84 µM (RAW264.7 [15]): 44.2%; inhibition at 84 µM (RAW264.7 [16]): 54.6%
C=C(C)[C@@H]1CC[C@]2(C)CC[C@]3(C)[C@H](CC[C@@H]4[C@@](C)(CCCN5C[C@H](O)C[C@H]5C(=O)OC)[C@H](C(=C)C)CC[C@]43C)[C@@H]12,–,23.2,–,–,–,–,–,36.4,7.2,Active,64.2,inhibition (RAW-Blue [17]): 87.4%; Activity (RAW264.7 [18]): Active; inhibition at 35 µM (RAW264.7 [19]): 55.7%; Activity (RAW264.7 [20]): Active; Activity (RAW264.7 [21]): Active; IC50 (RAW264.7 [9]): 11.1 µM
C=C(C)[C@@H]1CC[C@]2(C)CC[C@]3(C)[C@H](CC[C@@H]4[C@@]5(C)CC[C@@H](O)C(C)(C)[C@@H]5CC[C@]43C)[C@H]12,–,–,–,–,–,–,–,66.4,–,–,–,–
C=C(C)[C@@H]1CC[C@]2(C)CC[C@]3(C)[C@H](CC[C@@H]4[C@@](C)(CCCN5CCOCC5)[C@H](C(=C)C)CC[C@]43C)[C@@H]12,49.2,–,Non-Toxic,–,–,–,–,11.1,–,–,–,–

# Now from value to compound, other results behind:
inhibition [5] [%],IC50 (RAW264.7 [6]) [µM],Compound,Activity (RAW264.7 [1]),inhibition at 70 µM (RAW264.7 [2]) [%],inhibition (RAW-Blue [3]) [%],Activity (RAW264.7 [4]),Activity (RAW264.7 [7]),inhibition (INH) (Mus musculus) [%],inhibition at 17.5 µM [8] [%],Activity (RAW264.7 [10]),"viability at 24 h, 70 µM [13] [%]",other results
66.3,58.9,C=C(C)[C@@H]1CC[C@]2(C)[C@H](CC=C3[C@@H]4[C@@H](C)[C@H](C)CC[C@]4(C)CC[C@]32C)[C@@]1(C)CCCO,Non-Toxic,68.5,22,Active,Active,9.5,–,Active,–,inhibition at 70 µM (RAW264.7 [14]): 40.2%
74.4,–,C=C(C)[C@@H]1CC[C@]2(C)[C@H](CC=C3[C@@H]4[C@@H](C)[C@H](C)CC[C@]4(C)CC[C@]32C)[C@@]1(C)CCCN1CCOCC1,–,–,–,–,–,12.2,12.2,–,73.8,–
61.8,42.9,C=C(C)[C@@H]1CC[C@]2(C)[C@H](CC=C3[C@@H]4[C@@H](C)[C@H](C)CC[C@]4(C)CC[C@]32C)[C@@]1(C)CCCN1C[C@H](O)C[C@H]1C(=O)OC,Non-Toxic,70,96.2,Active,Active,25.2,37.3,Active,–,inhibition at 70 µM (RAW264.7 [14]): 89.1%
61.8,–,C=C(C)[C@@H]1CC[C@]2(C)[C@H](CC=C3[C@@H]4[C@@H](C)[C@H](C)CC[C@]4(C)CC[C@]32C)[C@@]1(C)CCCNCC(=O)OC,Non-Toxic,–,–,–,–,40.1,33.3,–,–,–
